Measurements reported in patent publication US7250442B2, “Dihydroindol-2-one derivatives as steroid hormone nuclear receptor modulators” (Eli Lilly and Company, priority 2003, dated 2007).

Biological target: T1, human MR (Homo sapiens, UniProt P08235)
T1 construct: The full length human MR gene is cloned from a human kidney or human brain cDNA library; made in house; host or cells: Sf9 insect cells (baculovirus, pAcHLT transfer vector)
T1 sequence (P08235 1-984): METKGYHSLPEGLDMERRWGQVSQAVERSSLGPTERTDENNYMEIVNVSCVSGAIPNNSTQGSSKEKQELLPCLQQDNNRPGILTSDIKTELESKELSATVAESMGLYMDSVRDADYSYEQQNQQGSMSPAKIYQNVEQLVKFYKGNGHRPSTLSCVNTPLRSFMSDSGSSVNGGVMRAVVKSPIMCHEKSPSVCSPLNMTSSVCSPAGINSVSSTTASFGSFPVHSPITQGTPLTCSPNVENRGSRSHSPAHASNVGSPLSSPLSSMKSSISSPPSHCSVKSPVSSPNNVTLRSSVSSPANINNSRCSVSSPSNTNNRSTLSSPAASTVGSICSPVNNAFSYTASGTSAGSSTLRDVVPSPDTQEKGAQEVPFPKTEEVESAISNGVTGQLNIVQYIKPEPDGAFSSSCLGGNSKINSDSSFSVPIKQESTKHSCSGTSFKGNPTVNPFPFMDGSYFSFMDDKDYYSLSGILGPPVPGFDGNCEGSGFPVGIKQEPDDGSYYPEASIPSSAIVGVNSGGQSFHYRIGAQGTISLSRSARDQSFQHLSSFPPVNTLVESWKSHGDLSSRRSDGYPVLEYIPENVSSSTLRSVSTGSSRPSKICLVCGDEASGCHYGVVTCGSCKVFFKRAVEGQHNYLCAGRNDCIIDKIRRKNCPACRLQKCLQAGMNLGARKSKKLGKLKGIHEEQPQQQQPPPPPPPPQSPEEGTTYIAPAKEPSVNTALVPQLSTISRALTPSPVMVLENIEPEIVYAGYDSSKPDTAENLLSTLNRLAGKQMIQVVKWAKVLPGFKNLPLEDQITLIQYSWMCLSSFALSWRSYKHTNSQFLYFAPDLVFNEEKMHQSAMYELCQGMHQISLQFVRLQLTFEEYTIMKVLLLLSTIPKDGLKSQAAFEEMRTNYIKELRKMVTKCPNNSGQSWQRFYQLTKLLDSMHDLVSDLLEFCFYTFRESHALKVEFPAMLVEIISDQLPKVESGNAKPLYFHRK
Test: Mineralocorticoid Receptor Binding Assay ([3H]-aldosterone displacement)
Details: full length human MR expressed in Sf9 cells, 0.5 nM [3H]-aldosterone
In short: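 Full-length human MR expressed in Sf9 cells; lysate (20-25 μg protein) incubated with 0.5 nM [3H]-aldosterone and test compound in molybdate/Tris/phosphate/glycerol buffer pH 7.5, 16 h at 4 °C. Bound ligand measured by filtration and scintillation counting; IC50 converted to Ki via Cheng-Prusoff.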

Row | Structure (SMILES) | Ki [nM]
1 | Cc1ccc2c(c1)C(c1cc(C)c(O)c(C)c1)(c1cc(C)c(O)c(C)c1)C(=O)N2Cc1ccccc1Cl [Example 22, 1-(2-Chloro-benzyl)-3,3-bis-(4-hydroxy-3,5-dimethyl-phenyl)-5-methyl-1,3-dihydro-indol-2-one] | ≤ 500
2 | CC(C)=CCN1C(=O)C(c2cc(C)c(O)c(C)c2)(c2cc(C)c(O)c(C)c2)c2ccccc21 [Example 102, 3,3-Bis-(4-hydroxy-3,5-dimethyl-phenyl)-1-(3-methyl-but-2-enyl)-1,3-dihydro-indol-2-one] | ≤ 500
3 | Cc1cc(C2(c3cc(C)c(O)c(C)c3)C(=O)N(Cc3ccc([N+](=O)[O-])o3)c3ccccc32)cc(C)c1O [Example 73, 3,3-Bis-(4-hydroxy-3,5-dimethyl-phenyl)-1-(5-nitro-furan-2-ylmethyl)-1,3-dihydro-indol-2-one] | ≤ 500
4 | CCc1cccc2c1N(Cc1ccccc1Cl)C(=O)C2(c1cc(C)c(O)c(C)c1)c1cc(C)c(O)c(C)c1 [Example 25, 1-(2-Chloro-benzyl)-7-ethyl-3,3-bis-(4-hydroxy-3,5-dimethyl-phenyl)-1,3-dihydro-indol-2-one] | ≤ 500
5 | C#CCN1C(=O)C(c2cc(C)c(O)c(C)c2)(c2cc(C)c(O)c(C)c2)c2ccccc21 [Example 101, 3,3-Bis-(4-hydroxy-3,5-dimethyl-phenyl)-1-prop-2-ynyl-1,3-dihydro-indol-2-one] | ≤ 500
6 | Cc1cc(C2(c3cc(C)c(O)c(C)c3)C(=O)N(c3cccc(F)c3)c3ccccc32)cc(C)c1O [Example 130, 1-(3-Fluoro-phenyl)-3,3-bis-(4-hydroxy-3,5-dimethyl-phenyl)-1,3-dihydro-indol-2-one] | ≤ 500
7 | COC(=O)c1cccc(-c2noc(CN3C(=O)C(c4cc(C)c(O)c(C)c4)(c4cc(C)c(O)c(C)c4)c4ccccc43)n2)c1 [Example 141, 3-{5-[3,3-Bis-(4-hydroxy-3,5-dimethyl-phenyl)-2-oxo-2,3-dihydro-indol-1-ylmethyl]-[1,2,4]oxadiazol-3-yl}-benzoic acid methyl ester] | ≤ 500
8 | COc1ccc(CN2C(=O)C(c3cc(C)c(O)c(C)c3)(c3cc(C)c(O)c(C)c3)c3ccccc32)cc1 [Example 1, 3,3-Bis-(4-hydroxy-3,5-dimethyl-phenyl)-1-(4-methoxy-benzyl)-1,3-dihydro-indol-2-one] | ≤ 500
9 | Cc1cc(C2(c3cc(C)c(O)c(C)c3)C(=O)N(Cc3ccccc3[N+](=O)[O-])c3ccccc32)cc(C)c1O [Example 65, 3,3-Bis-(4-hydroxy-3,5-dimethyl-phenyl)-1-(2-nitro-benzyl)-1,3-dihydro-indol-2-one] | ≤ 500
10 | COc1ccc(-c2nc(CN3C(=O)C(c4cc(C)c(O)c(C)c4)(c4cc(C)c(O)c(C)c4)c4cc(C)ccc43)cs2)cc1 [Example 95, 3,3-Bis-(4-hydroxy-3,5-dimethyl-phenyl)-1-[2-(4-methoxy-phenyl)-thiazol-4-ylmethyl]-5-methyl-1,3-dihydro-indol-2-one] | ≤ 500
11 | Cc1cc(C2(c3cc(C)c(O)c(C)c3)C(=O)N(Cc3ccccc3C(F)(F)F)c3ccccc32)cc(C)c1O [Example 53, 3,3-Bis-(4-hydroxy-3,5-dimethyl-phenyl)-1-(2-trifluoromethyl-benzyl)-1,3-dihydro-indol-2-one] | ≤ 500
12 | Cc1ccccc1N1C(=O)C(c2cc(C)c(O)c(C)c2)(c2cc(C)c(O)c(C)c2)c2ccccc21 [Example 132, 3,3-Bis-(4-hydroxy-3,5-dimethyl-phenyl)-1-o-tolyl-1,3-dihydro-indo 1-2-one] | ≤ 500
13 | Cc1cc(C2(c3cc(C)c(O)c(C)c3)C(=O)N(c3ccncc3)c3ccccc32)cc(C)c1O [Example 136, 3,3-Bis-(4-hydroxy-3,5-dimethyl-phenyl)-1-pyridin-4-yl-1,3-dihydro-indol-2-one] | ≤ 500
14 | Cc1cc(C2(c3cc(C)c(O)c(C)c3)C(=O)N(Cc3cccc([N+](=O)[O-])c3)c3ccccc32)cc(C)c1O [Example 85, 3,3-Bis-(4-hydroxy-3,5-dimethyl-phenyl)-1-(3-nitro-benzyl)-1,3-dihydro-indol-2-one] | ≤ 500
15 | Cc1cc(C2(c3cc(C)c(O)c(C)c3)C(=O)N(Cc3ccccc3OC(F)F)c3ccccc32)cc(C)c1O [Example 79, 1-(2-Difluoromethoxy-benzyl)-3,3-bis-(4-hydroxy-3,5-dimethyl-phenyl)-1,3-dihydro-indol-2-one] | ≤ 500
16 | Cc1ccccc1CN1C(=O)C(c2cc(C)c(O)c(C)c2)(c2cc(C)c(O)c(C)c2)c2cc(Br)ccc21 [Example 20, 5-Bromo-3,3-bis-(4-hydroxy-3,5-dimethyl-phenyl)-1-(2-methyl-benzyl)-1,3-dihydro-indol-2-one] | ≤ 500
17 | Cc1cc(C2(c3cc(C)c(O)c(C)c3)C(=O)N(Cc3cccc(Br)c3)c3ccccc32)cc(C)c1O [Example 64, 1-(3-Bromo-benzyl)-3,3-bis-(4-hydroxy-3,5-dimethyl-phenyl)-1,3-dihydro-indol-2-one] | ≤ 500
18 | Cc1cc(C2(c3cc(C)c(O)c(C)c3)C(=O)N(c3ccc(C(F)(F)F)cc3)c3ccccc32)cc(C)c1O [Example 131, 3,3-Bis-(4-hydroxy-3,5-dimethyl-phenyl)-1-(4-trifluoromethyl-phenyl)-1,3-dihydro-indol-2-one] | ≤ 500
19 | Cc1ccc2c(c1)C(c1cc(C)c(O)c(C)c1)(c1cc(C)c(O)c(C)c1)C(=O)N2Cc1ccccc1 [Example 17, 1-Benzyl-3,3-bis-(4-hydroxy-3,5-dimethyl-phenyl)-5-methyl-1,3-dihydro-indol-2-one] | ≤ 500
20 | Cc1cc(C2(c3cc(C)c(O)c(C)c3)C(=O)N(Cc3ccc(OCc4ccccc4)cc3)c3ccccc32)cc(C)c1O [Example 74, 1-(4-Benzyloxy-benzyl)-3,3-bis-(4-hydroxy-3,5-dimethyl-phenyl)-1,3-dihydro-indol-2-one] | ≤ 500
21 | Cc1cc(C2(c3cc(C)c(O)c(C)c3)C(=O)N(Cc3ccc(C(F)(F)F)cc3C(F)(F)F)c3ccccc32)cc(C)c1O [Example 68, 1-(2,4-Bis-trifluoromethyl-benzyl)-3,3-bis-(4-hydroxy-3,5-dimethyl-phenyl)-1,3-dihydro-indol-2-one] | ≤ 500
22 | Cc1cc(C2(c3cc(C)c(O)c(C)c3)C(=O)N(Cc3ccccc3Cl)c3ccc(Br)cc32)cc(C)c1O [Example 19, 5-Bromo-1-(2-chloro-benzyl)-3,3-bis-(4-hydroxy-3,5-dimethyl-phenyl)-1,3-dihydro-indol-2-one] | ≤ 500
23 | Cc1cc(C2(c3cc(C)c(O)c(C)c3)C(=O)N(Cc3ccc(F)cc3F)c3ccccc32)cc(C)c1O [Example 43, 1-(2,4-Difluoro-benzyl)-3,3-bis-(4-hydroxy-3,5-dimethyl-phenyl)-1,3-dihydro-indol-2-one] | ≤ 500
24 | Cc1cc(C2(c3cc(C)c(O)c(C)c3)C(=O)N(Cc3ccc(Br)cc3)c3ccccc32)cc(C)c1O [Example 58, 1-(4-Bromo-benzyl)-3,3-bis-(4-hydroxy-3,5-dimethyl-phenyl)-1,3-dihydro-indol-2-one] | ≤ 500
25 | Cc1cc(C2(c3cc(C)c(O)c(C)c3)C(=O)N(CC3CCCCC3)c3ccccc32)cc(C)c1O [Example 6, 1-Cyclohexylmethyl-3,3-bis-(4-hydroxy-3,5-dimethyl-phenyl)-1,3-dihydro-indol-2-one] | ≤ 500
26 | Cc1cc(C2(c3cc(C)c(O)c(C)c3)C(=O)N(CC#N)c3ccccc32)cc(C)c1O [Example 78, [3,3-Bis-(4-hydroxy-3,5-dimethyl-phenyl)-2-oxo-2,3-dihydro-indol-1-yl]-acetonitrile] | ≤ 500
27 | COC(=O)c1ccc(CN2C(=O)C(c3cc(C)c(O)c(C)c3)(c3cc(C)c(O)c(C)c3)c3ccccc32)o1 [Example 108, 5-[3,3-Bis-(4-hydroxy-3,5-dimethyl-phenyl)-2-oxo-2,3-dihydro-indol-1-ylmethyl]-furan-2-carboxylic acid methyl ester] | ≤ 500
28 | Cc1cc(C2(c3cc(C)c(O)c(C)c3)C(=O)N(c3cccc(C(F)(F)F)c3)c3ccccc32)cc(C)c1O [Example 127, 3,3-Bis-(4-hydroxy-3,5-dimethyl-phenyl)-1-(3-trifluoromethyl-phenyl)-1,3-dihydro-indol-2-one] | ≤ 500
29 | COc1nccc(N2C(=O)C(c3cc(C)c(O)c(C)c3)(c3cc(C)c(O)c(C)c3)c3ccccc32)n1 [Example 143, 3,3-Bis-(4-hydroxy-3,5-dimethyl-phenyl)-1-(2-methoxy-pyrimidin-4-yl)-1,3-dihydro-indol-2-one] | ≤ 500
